Measurements from patent US10662156B2, “Guanidine derivative and medical use thereof” (Toray Industries, Inc., priority 2016, dated 2020).
Structures can show the parent of a compound that is named as a salt.

The molecules below were run against recombinant GST fusion MALT1 (human MALT1) (Homo sapiens (Human), UniProt Q9UDY8) (assay: Evaluation of inhibition of protease activity of MALT1 (cleavage of fluorescent peptide substrate Ac-LRSR-AMC)). Conditions: substrate Ac-LRSR-AMC 20 μmol/L, 30° C. for 80 minutes.
Chain of recombinant GST fusion MALT1 (human MALT1) (Q9UDY8 whole entry, the tested form may be a part): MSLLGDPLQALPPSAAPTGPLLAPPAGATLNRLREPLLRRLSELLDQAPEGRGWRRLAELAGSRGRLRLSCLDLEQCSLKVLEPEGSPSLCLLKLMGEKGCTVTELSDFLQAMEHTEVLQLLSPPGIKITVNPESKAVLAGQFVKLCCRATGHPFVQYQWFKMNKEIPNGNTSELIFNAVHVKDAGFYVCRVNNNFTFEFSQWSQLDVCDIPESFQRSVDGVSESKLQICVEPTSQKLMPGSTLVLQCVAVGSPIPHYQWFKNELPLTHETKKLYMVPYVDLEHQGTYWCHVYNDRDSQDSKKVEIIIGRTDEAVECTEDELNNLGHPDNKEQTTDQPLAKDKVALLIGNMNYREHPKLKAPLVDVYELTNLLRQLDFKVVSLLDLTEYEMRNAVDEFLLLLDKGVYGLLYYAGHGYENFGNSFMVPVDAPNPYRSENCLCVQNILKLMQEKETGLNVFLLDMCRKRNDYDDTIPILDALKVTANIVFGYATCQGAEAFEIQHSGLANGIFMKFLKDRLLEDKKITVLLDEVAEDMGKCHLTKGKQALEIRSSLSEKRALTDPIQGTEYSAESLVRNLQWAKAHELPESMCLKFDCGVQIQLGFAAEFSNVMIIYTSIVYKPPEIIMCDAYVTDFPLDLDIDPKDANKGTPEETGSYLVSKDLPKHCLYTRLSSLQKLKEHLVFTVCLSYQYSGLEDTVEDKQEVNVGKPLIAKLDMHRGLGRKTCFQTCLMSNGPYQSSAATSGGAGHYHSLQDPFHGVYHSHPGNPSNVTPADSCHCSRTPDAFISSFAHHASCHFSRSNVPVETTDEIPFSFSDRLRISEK
Format: biochemical
Description: The guanidine derivative (I) or the pharmacologically acceptable salt thereof was evaluated for its inhibition of the protease activity of MALT1 in an in vitro experimental system in accordance with the method described in the literature (Cancer Cell, 2012, Vol. 22, p. 825-837). Specifically, the evaluation was conducted by measuring the degree of reduction in fluorescence value by the compound relative to elevation in fluorescence value resulting from the cleavage of a fluorescently labeled artificial peptide substrate by recombinant MALT1.
A) Preparation of Recombinant GST Fusion MALT1:
Full-length cDNA of human MALT1 gene (GenBank accession No: AB026118.1) amplified by PCR was inserted in flame to a SalI site located downstream of GST gene in a pGEX6P3 vector (GE Healthcare Japan Corp.) to prepare a vector (hereinafter, referred to as a pGEX6P3-MALT1 vector). Subsequently, E. coli for protein expression (BL21-RIL-codon plus-DE3, Agilent Technologies, Inc.) was transformed with the pGEX6P3-MALT1 vector and then analyzed by ampicillin resistance screening and colony PCR to obtain an E. coli strain expressing recombinant GST fusion MALT1. Protein expression was induced with isopropyl-(3-thiogalactopyranoside. After the expression induction, E. coli precipitates were recovered by centrifugation from the E. coli culture solution, and the E. coli precipitates were homogenized and then centrifuged to obtain a supernatant. The supernatant was purified using GSTrap FF column (GE Healthcare Japan Corp.) to obtain recombinant GST fusion MALT1.
B) Evaluation of Inhibition of Protease Activity of MALT1:
To 89 μL of an enzyme solution ([…] GST fusion MALT1, 50 mmol/L MES, 150 mmol/L NaCl, 10% sucrose, 0.1% CHAPS, 10 mmol/L dithiothreitol, and 1 mol/L tri-ammonium citrate) per specimen, 1 μL of a test compound (DMSO-diluted solution) of each concentration was added to prepare a mixed solution. The mixed solution was incubated at room temperature for 30 minutes, followed by the measurement of the fluorescence value of the mixed solution (fluorescence value of the first measurement) (Ex: 380 nm, Em: 460 nm; Envision (Perkin Elmer Inc.)). Next, 10 μL of 200 μmol/L substrate (Ac-LRSR-AMC, SM Biochemicals LLC) was added (final concentration: 20 μmol/L) to the mixed solution, and the mixture was reacted by incubation at 30° C. for 80 minutes, followed by the measurement of the fluorescence value of the reaction solution (fluorescence value of the second measurement) (Ex: 380 nm, Em: 460 nm; Envision (Perkin Elmer Inc.)). A “well nonsupplemented with the test compound (only DMSO was added), nonsupplemented with the enzyme and supplemented with the substrate”, and a “well nonsupplemented with the test compound (only DMSO was added), supplemented with the enzyme and supplemented with the substrate” were established.
The fluorescence value of the first measurement was defined as “F1”, and the fluorescence value of the second measurement was defined as “F2”. F2−F1 of the “well nonsupplemented with the test compound (only DMSO was added), nonsupplemented with the enzyme and supplemented with the substrate” was defined as “Fback”, F2−F1 of the “well nonsupplemented with the test compound (only DMSO was added), supplemented with the enzyme and supplemented with the substrate” was defined as “Fpositive”, and F2−F1 of the “well supplemented with the test compound, supplemented with the enzyme and supplemented with the substrate” was defined as “Fsample”. The rate of inhibition (%) of the protease activity of MALT1 by the test compound was calculated according to the following expression. Rate of inhibition (%)=100×(1−(Fsample−Fback)/(Fpositive−Fback))
Work on `COc1cccc(S(=O)(=O)/N=C(\N)NCc2cnc(-c3ccc(Cl)cc3)c(-c3ccc(Cl)cc3)c2)c1` [Compound of Example 50, N-(amino(((5,6-bis(4-chlorophenyl)pyridin-3-yl)methyl)amino)methylene)-3-methoxybenzenesulfonamide] yielded an IC50 of 114 nM. `N/C(=N\C(=O)Cc1ccccc1)NCc1cnc(-c2ccc(Cl)cc2)c(-c2ccc(Cl)cc2)c1` [Compound of Example 75, N-(amino(((5,6-bis(4-chlorophenyl)pyridin-3-yl)methyl)amino)methylene)-2-phenylacetamide] showed an IC50 of 353 nM. With `N/C(=N\S(=O)(=O)c1ccccc1)NCc1cnc(-c2ccc(C(F)(F)F)cc2)c(-c2ccccc2)c1` [Compound of Example 93, N-(amino(((5-phenyl-6-(4-(trifluoromethyl)phenyl)pyridin-3-yl)methyl)amino)methylene)benzenesulfonamide] the IC50 was 1070 nM. `N/C(=N\S(=O)(=O)c1ccc(Cl)s1)NCc1cnc(-c2ccc(Cl)cc2)c(-c2ccc(Cl)cc2)c1` [Compound of Example 54, N-(amino(((5,6-bis(4-chlorophenyl)pyridin-3-yl)methyl)amino)methylene)-5-chlorothiophene-2-sulfonamide] gave an IC50 of 169 nM. With `NC(=NS(=O)(=O)c1ccccc1)NCc1ccc(-c2ccc(Cl)cc2)c(-c2ccc(Cl)cc2)n1` [Compound of Example 45, N-(amino(((5,6-bis(4-chlorophenyl)pyridin-2-yl)methyl)amino)methylene)benzenesulfonamide Hydrochloride] the IC50 was 221 nM. Work on `COc1ccccc1S(=O)(=O)/N=C(\N)NCc1cnc(-c2ccc(Cl)cc2)c(-c2ccc(Cl)cc2)c1` [Compound of Example 49, N-(amino(((5,6-bis(4-chlorophenyl)pyridin-3-yl)methyl)amino)methylene)-2-methoxybenzenesulfonamide] yielded an IC50 of 326 nM. With `N#Cc1ccc(-c2cc(CN/C(N)=N/S(=O)(=O)c3ccccc3)cnc2-c2ccc(Cl)cc2)cc1` [Compound of Example 19, N-(amino(((6-(4-chlorophenyl)-5-(4-cyanophenyl)pyridin-3-yl)methyl)amino)methylene)benzenesulfonamide] the IC50 was 1520 nM. With `N/C(=N\C(=O)C1CCCCC1)NCc1cnc(-c2ccc(Cl)cc2)c(-c2ccc(Cl)cc2)c1` [Compound of Example 73, N-(amino(((5,6-bis(4-chlorophenyl)pyridin-3-yl)methyl)amino)methylene)cyclohexanecarboxamide Hydrochloride] the IC50 was 300 nM. With `COc1ccc(C(=O)/N=C(\N)NCc2cnc(-c3ccc(Cl)cc3)c(-c3ccc(Cl)cc3)c2)cc1` [Compound of Example 69, N-(amino(((5,6-bis(4-chlorophenyl)pyridin-3-yl)methyl)amino)methylene)-4-methoxybenzamide] the IC50 was 778 nM. `N/C(=N\S(=O)(=O)c1ccccc1)NCc1cnc(-c2ccc(Cl)cc2)c(-c2ccccc2Cl)c1` [Compound of Example 16, N-(amino(((5-(2-chlorophenyl)-6-(4-chlorophenyl)pyridin-3-yl)methyl)amino)methylene)benzenesulfonamide] gave an IC50 of 2410 nM. With `N/C(=N\S(=O)(=O)c1ccccc1)NCc1cnc(-c2ccc(F)cc2)c(-c2ccc(Cl)cc2)c1` [Compound of Example 8, N-(amino(((5-(4-chlorophenyl)-6-(4-fluorophenyl)pyridin-3-yl)methyl)amino)methylene)benzenesulfonamide] the IC50 was 1290 nM. `N/C(=N\S(=O)(=O)c1ccco1)NCc1cnc(-c2ccc(Cl)cc2)c(-c2ccc(Cl)cc2)c1` [Compound of Example 31, N-(amino(((5,6-bis(4-chlorophenyl)pyridin-3-yl)methyl)amino)methylene)furan-2-sulfonamide] showed an IC50 of 102 nM. `N/C(=N\C(=O)c1ccccc1F)NCc1cnc(-c2ccc(Cl)cc2)c(-c2ccc(Cl)cc2)c1` [Compound of Example 67, N-(amino(((5,6-bis(4-chlorophenyl)pyridin-3-yl)methyl)amino)methylene)-2-fluorobenzamide] was tested, and the IC50 was 644 nM.
